Data published in patent publication US6610672B2, “Compositions including reduced malto-oligosaccharide preserving agents, and methods for preserving a material” (Grain Processing Corporation, priority 1999, dated 2003).

Legend:
[1] = Ultraviolet absorption (450 nm) over time of buffered lysine solutions with or without malto-oligosaccharide, warmed to 75° C.; format: physicochemical
Protocol: A pH 6 buffered lysine solution was prepared by dissolving L-lysine (0.5 g) in phosphate buffer and adjusting the pH with hydrochloric acid. […] An aqueous solution of a reduced malto-oligosaccharide was prepared by dissolving a reduced malto-oligosaccharide mixture in water to produce a solution having a final solids content of 50% by weight. The buffered lysine solution (2 mL) was dissolved in the aqueous reduced malto-oligosaccharide solution (hydrogenated MALTRIN® M180) (3 mL) to produce a solution.

[2] = system: Fleischmann's baker's yeast; experiment: Yeast viability before and after freeze drying (cell counting after plating on YM agar); format: cell-based; details: yeast viability of freeze dried sample divided by that of control sample
Protocol: Yeast viability was determined by cell counting after plating on yeast extract, malt extract (YM) agar in accordance with the method described in FDA Bacteriological Analytical Manual, 6th Ed., Ch. 4, pp. 401-402 (1984). Yeast viability is expressed as the number of cells per gram of dry solids (gm.ds). The percent yeast survival was determined by dividing the yeast viability of the freeze dried sample by the yeast viability of the control sample.
For comparison, a mixture of yeast cells and a malto-oligosaccharide was freeze dried, as follows. A 20% aqueous solution of MALTRIN® M180 (M180) was prepared by dissolving 85.5 g (6.4% moisture) of M180 in […] of deionized water. A suspension of yeast cells was prepared by dissolving 5.78 g of Fleischmann's baker's yeast in 94.3 g of sterile phosphate buffer. The yeast suspension was stirred for 30 minutes to obtain a relatively homogenous yeast mixture. A 10.0 ml aliquot of the yeast suspension was pipetted into the 20% aqueous M180 solution. A control sample was removed to determine yeast viability by plating on YM agar (sample 9A). […] After freeze drying, sample 9B was removed from the pans and analyzed for yeast viability. […]
A mixture of yeast cells and a reduced malto-oligosaccharide was freeze dried, as follows. […] After freeze drying, samples 9D-1 and 9D-2 were removed from the pans and analyzed for yeast viability. […]

[3] = system: Enzeco® Fungal Lactase Concentrate; experiment: Lactase enzyme activity before and after freeze drying (glucose released from a buffered lactose solution); format: biochemical
Protocol: The enzyme activity was determined in accordance with Mazzobre et al., Biopolymer Science: Food and Non Food Applications, Montpellier (France) Sep. 28-30, 1998 Ed. INRA, Paris, 1999 (Les Colloques, no 91). The procedure is based on measuring the amount of glucose released from a buffered lactose solution. The measurement was done using a YSI 2700 glucose analyzer.
For comparison, a mixture containing lactase and a malto-oligosaccharide was prepared, as follows. A 20% aqueous solution of MALTRIN® M180 (M180) was prepared by dissolving 85.5 g (6.4% moisture) of M180 in 313.5 g of deionized water. Enzeco® Fungal Lactase Concentrate, 1.0 g was added to the slurry and stirred for one hour. A 20.0 ml aliquot of the mixture was removed as a control (sample 8A). The remaining sample was poured into two separate freeze drying pans and each was freeze dried according to the temperature profile in Table 3. The temperature profile shown in column 8B of Table 3 represents the temperature profile for only one of the two samples in the freeze drying pans. The freeze dryer was a Virtis Genesis 25XL unit. Final vacuum of the system was 11.8 mtorr. After freeze drying, the material was removed from the pans and evaluated for enzyme activity. The enzyme activity in column 8B of Table 4 represents an average of the enzyme activities for each of the two samples in the freeze drying pans.
A mixture containing lactase and a reduced malto-oligosaccharide was freeze dried as follows. A 20% aqueous solution of reduced malto-oligosaccharide with a carbohydrate profile that matches MALTRIN® M180 (H-M180) was prepared by dissolving 83.4 g (4.1% moisture) of the reduced malto-oligosaccharide in 315.6 g of deionized water. Enzeco® Fungal Lactase Concentrate (1.0 g) was added to the slurry and stirred for one hour. A 20.0 ml aliquot of the mixture was removed as a control (sample 8C). The remaining sample was poured into two separate freeze drying pans and freeze dried according to the temperature profile in Table 3 (samples 8D-1 and 8D-2). The freeze dryer was a Virtis Genesis 25XL unit. Final vacuum of the system was 11.8 mtorr. After freeze drying, the material was removed from the pans and evaluated for enzyme activity as described in the previous example.
For comparison, a mixture containing lactase and trehalose was freeze dried, as follows. A 20% aqueous solution of trehalose was prepared by dissolving 88.9 g (9.1% moisture) of trehalose in 311.0 g of deionized water. Enzeco® Fungal Lactase Concentrate, 1.0 g was added to the slurry and stirred for-one hour. A 20.0 ml aliquot of the mixture was removed as a control (sample 8E). The remaining sample was poured into two separate freeze drying pans and each was freeze dried according to the temperature profile in Table 3. The temperature profile shown in column 8F of Table 3 represents the temperature profile of only one of the two samples in the freeze drying pans. The freeze dryer was a Virtis Genesis 25XL unit. Final vacuum of the system was 11.8 mtorr. After freeze drying, the material was removed from the pans and evaluated for enzyme activity as described in the previous example. The enzyme activity in column 8F of Table 4 represents an average of the enzyme activities for each of the two samples in the freeze drying pans.
The enzymatic activities shown in Table 4 are expressed as the percentage of glucose liberated in the enzyme assay as measured by the amount of glucose liberated divided by the maximum amount of glucose that can be theoretically liberated.

NCCCC[C@H](N)C(=O)O [Control (lysine only), L-lysine]
UV absorption (450 nm) ([1]; time 0 min): 0.044 | UV absorption (450 nm) ([1]; time 20 min): 0.043 | UV absorption (450 nm) ([1]; time 35 min): 0.044 | UV absorption (450 nm) ([1]; time 50 min): 0.046 | UV absorption (450 nm) ([1]; time 65 min): 0.047 | UV absorption (450 nm) ([1]; time 80 min): 0.048 | UV absorption (450 nm) ([1]; time 100 min): 0.050 | UV absorption (450 nm) ([1]; time 110 min): 0.050 | UV absorption (450 nm) ([1]; time 125 min): 0.051 | UV absorption (450 nm) ([1]; time 170 min): 0.055 | UV absorption (450 nm) ([1]; time 185 min): 0.057 | UV absorption (450 nm) ([1]; time 200 min): 0.057 | UV absorption (450 nm) ([1]; time 215 min): 0.059 | UV absorption (450 nm) ([1]; time 230 min): 0.059 | UV absorption (450 nm) ([1]; time 245 min): 0.058 | UV absorption (450 nm) ([1]; time 260 min): 0.061 | UV absorption (450 nm) ([1]; time 305 min): 0.061 | UV absorption (450 nm) ([1]; time 320 min): 0.063 | UV absorption (450 nm) ([1]; time 335 min): 0.063 | UV absorption (450 nm) ([1]; time 350 min): 0.063 | UV absorption (450 nm) ([1]; time 365 min): 0.064 | UV absorption (450 nm) ([1]; time 380 min): 0.065

OC[C@H]1O[C@H](O[C@H]2O[C@H](CO)[C@@H](O)[C@H](O)[C@H]2O)[C@H](O)[C@@H](O)[C@@H]1O [Trehalose, trehalose]
% Yeast Survival [2]: 58.0 (trehalase) % | % activity (freeze dried sample divided by control sample not freeze dried) ([3]; Avg. over assay times): 86.6% | % activity (freeze dried sample divided by control sample not freeze dried) ([3]; lactase assay time 0 h): 0% | % activity (freeze dried sample divided by control sample not freeze dried) ([3]; lactase assay time 0.05 h): 72.4% | % activity (freeze dried sample divided by control sample not freeze dried) ([3]; lactase assay time 0.5 h): 90.0% | % activity (freeze dried sample divided by control sample not freeze dried) ([3]; lactase assay time 1 h): 90.7% | % activity (freeze dried sample divided by control sample not freeze dried) ([3]; lactase assay time 2 h): 93.2%
